{
  "source": "paper PMC9127750",
  "about": "“Structure-based design of CDC42 effector interaction inhibitors for the treatment of cancer” (Cell reports, 2022)",
  "test_system": "WM3248 melanoma cells, 486 antibodies",
  "assay": "Reverse phase protein arrays (RPPA)",
  "type": "cell-based, Human",
  "text": "Pellets were snap frozen in liquid nitrogen and shipped to MD Anderson Cancer Center core RPPA facility for RPPA analysis (Table S5). Three biological replicates for each sample were generated.\nNomenclatures on the RPPA heatmaps: name_of_antibody.species_of_antibody.status_of_antibody. V - antibody validated; C - validation of antibody in progress; Q - antibody nonspecific; E – under evaluation; antibodies raised in M - mouse, G - goat, R - rabbit, or T - rat.",
  "key": {"[1]": {"settings": "20, replicates 1-3, normalized to 0"}, "[2]": {"settings": "Norm_5: replicates 1-3 and Average, relative to 0"}},
  "note": "Where “and” joins values, the source holds several entries; their conditions need not be identical. Identical values can stand only once.",
  "data": [
    {"smiles": "CN(C)c1cccc(Nc2cc(-c3ccccc3)nc(C3CCNCC3)n2)c1", "note": "[ARN22089, N1,N1-dimethyl-N3-(6-phenyl-2-(piperidin-4-yl)pyrimidin-4-yl)benzene-1,3-diamine]", "values": [
      {"measurement": "eIF4E_pS209.R.V Norm_20", "setting": "[1]", "result": "0.954 and 0.835 and 1.321"},
      {"measurement": "eIF4G.R.C Norm_20", "setting": "[1]", "result": "1.493 and 1.003 and 0.999"},
      {"measurement": "MYH11.R.C Average", "setting": "Norm_5, normalized to Norm_0", "result": 1.033},
      {"measurement": "Myosin.IIa.R.C Average", "setting": "Norm_5, normalized to Norm_0", "result": 0.991},
      {"measurement": "Myosin.IIa_pS1943.R.V Average", "setting": "Norm_5, normalized to Norm_0", "result": 0.992},
      {"measurement": "Myt1.R.C Average", "setting": "Norm_5, normalized to Norm_0", "result": 1.030},
      {"measurement": "N.Cadherin.R.V Average", "setting": "Norm_5, normalized to Norm_0", "result": 0.967},
      {"measurement": "N.Ras.M.V Average", "setting": "Norm_5, normalized to Norm_0", "result": 0.979},
      {"measurement": "NDRG1_pT346.R.V Average", "setting": "Norm_5, normalized to Norm_0", "result": 1.270},
      {"measurement": "NDUFB4.R.V Average", "setting": "Norm_5, normalized to Norm_0", "result": 0.954},
      {"measurement": "NRF2.R.C Average", "setting": "Norm_5, normalized to Norm_0", "result": 1.024},
      {"measurement": "Notch1.R.V Average", "setting": "Norm_5, normalized to Norm_0", "result": 0.893},
      {"measurement": "Notch1.cleaved.R.V Average", "setting": "Norm_5, normalized to Norm_0", "result": 1.048},
      {"measurement": "Notch3.R.C Average", "setting": "Norm_5, normalized to Norm_0", "result": 0.987},
      {"measurement": "Oct.4.R.C Average", "setting": "Norm_5, normalized to Norm_0", "result": 1.097},
      {"measurement": "P.Cadherin.R.C Average", "setting": "Norm_5, normalized to Norm_0", "result": 1.185},
      {"measurement": "PAI.1.M.V Average", "setting": "Norm_5, normalized to Norm_0", "result": 0.899},
      {"measurement": "PAICS.R.C Average", "setting": "Norm_5, normalized to Norm_0", "result": 0.934},
      {"measurement": "PAK1.R.V Average", "setting": "Norm_5, normalized to Norm_0", "result": 0.952},
      {"measurement": "PAK4.R.V Average", "setting": "Norm_5, normalized to Norm_0", "result": 0.942},
      {"measurement": "PAK_pS474_S602_S560.R.V Average", "setting": "Norm_5, normalized to Norm_0", "result": 0.943},
      {"measurement": "PAK_pT423_T402.R.C Average", "setting": "Norm_5, normalized to Norm_0", "result": 0.942},
      {"measurement": "PAR.R.C Average", "setting": "Norm_5, normalized to Norm_0", "result": 2.806},
      {"measurement": "PARG.R.C Average", "setting": "Norm_5, normalized to Norm_0", "result": 1.053},
      {"measurement": "PAX6.R.V Average", "setting": "Norm_5, normalized to Norm_0", "result": 0.980},
      {"measurement": "PAX8.R.C Average", "setting": "Norm_5, normalized to Norm_0", "result": 0.929},
      {"measurement": "PCNA.M.C Average", "setting": "Norm_5, normalized to Norm_0", "result": 0.930},
      {"measurement": "PD.1.R.V Average", "setting": "Norm_5, normalized to Norm_0", "result": 0.933},
      {"measurement": "PD.L1.R.C Average", "setting": "Norm_5, normalized to Norm_0", "result": 1.049},
      {"measurement": "PDH.M.V Average", "setting": "Norm_5, normalized to Norm_0", "result": 0.971},
      {"measurement": "PDHA1.R.V Average", "setting": "Norm_5, normalized to Norm_0", "result": 1.000},
      {"measurement": "PDHK1.R.C Average", "setting": "Norm_5, normalized to Norm_0", "result": 1.047},
      {"measurement": "PDK1.R.V Average", "setting": "Norm_5, normalized to Norm_0", "result": 1.053},
      {"measurement": "PDK1_pS241.R.V Average", "setting": "Norm_5, normalized to Norm_0", "result": 1.123},
      {"measurement": "PEA.15.R.V Average", "setting": "Norm_5, normalized to Norm_0", "result": 0.989},
      {"measurement": "PEA.15_pS116.R.V Average", "setting": "Norm_5, normalized to Norm_0", "result": 0.945},
      {"measurement": "PERK.R.V Average", "setting": "Norm_5, normalized to Norm_0", "result": 0.967},
      {"measurement": "PGM1.R.V Average", "setting": "Norm_5, normalized to Norm_0", "result": 1.019},
      {"measurement": "PHLPP.R.V Average", "setting": "Norm_5, normalized to Norm_0", "result": 1.011},
      {"measurement": "PI3K.p85.R.C Average", "setting": "Norm_5, normalized to Norm_0", "result": 0.931},
      {"measurement": "PI3K.p110.a.R.C Average", "setting": "Norm_5, normalized to Norm_0", "result": 1.007},
      {"measurement": "PI3K.p110.b.M.C Average", "setting": "Norm_5, normalized to Norm_0", "result": 0.980},
      {"measurement": "PKA.a.R.V Average", "setting": "Norm_5, normalized to Norm_0", "result": 1.083},
      {"measurement": "PKC.a.b.II_pT638_T641.R.V Average", "setting": "Norm_5, normalized to Norm_0", "result": 0.910},
      {"measurement": "PKC.b.II_pS660.R.V Average", "setting": "Norm_5, normalized to Norm_0", "result": 1.083},
      {"measurement": "PKCa.R.V Average", "setting": "Norm_5, normalized to Norm_0", "result": 1.160},
      {"measurement": "PLC.gamma1.R.V Average", "setting": "Norm_5, normalized to Norm_0", "result": 1.065},
      {"measurement": "PLC.gamma1_pS1248.R.V Average", "setting": "Norm_5, normalized to Norm_0", "result": 1.197},
      {"measurement": "PLC.gamma2_pY759.R.V Average", "setting": "Norm_5, normalized to Norm_0", "result": 0.941},
      {"measurement": "PLK1.R.C Average", "setting": "Norm_5, normalized to Norm_0", "result": 0.892},
      {"measurement": "PMS2.R.V Average", "setting": "Norm_5, normalized to Norm_0", "result": 0.916},
      {"measurement": "PR.R.V Average", "setting": "Norm_5, normalized to Norm_0", "result": 0.959},
      {"measurement": "PRAS40.M.C Average", "setting": "Norm_5, normalized to Norm_0", "result": 0.988},
      {"measurement": "PRC1_pT481.R.C Average", "setting": "Norm_5, normalized to Norm_0", "result": 0.915},
      {"measurement": "Patched.R.C Average", "setting": "Norm_5, normalized to Norm_0", "result": 1.046},
      {"measurement": "Paxillin.R.C Average", "setting": "Norm_5, normalized to Norm_0", "result": 1.013},
      {"measurement": "Pdcd4.R.C Average", "setting": "Norm_5, normalized to Norm_0", "result": 1.126},
      {"measurement": "Porin.M.V Average", "setting": "Norm_5, normalized to Norm_0", "result": 0.959},
      {"measurement": "p21.R.C Average", "setting": "Norm_5, normalized to Norm_0", "result": 0.958},
      {"measurement": "p27.Kip1.R.C Average", "setting": "Norm_5, normalized to Norm_0", "result": 0.986},
      {"measurement": "p27_pT157.R.C Average", "setting": "Norm_5, normalized to Norm_0", "result": 1.081},
      {"measurement": "p27_pT198.R.V Average", "setting": "Norm_5, normalized to Norm_0", "result": 1.051},
      {"measurement": "p38.MAPK._pT180_Y182.R.V Average", "setting": "Norm_5, normalized to Norm_0", "result": 1.202},
      {"measurement": "p38.a.M.V Average", "setting": "Norm_5, normalized to Norm_0", "result": 0.984},
      {"measurement": "p44.42.MAPK.R.V Average", "setting": "Norm_5, normalized to Norm_0", "result": 1.160},
      {"measurement": "p53.R.C Average", "setting": "Norm_5, normalized to Norm_0", "result": 1.083},
      {"measurement": "p70.S6K1.R.V Average", "setting": "Norm_5, normalized to Norm_0", "result": 1.109},
      {"measurement": "p90RSK_pT573.R.C Average", "setting": "Norm_5, normalized to Norm_0", "result": 0.871},
      {"measurement": "PREX1.R.V normalized RPPA signal", "setting": "[2]", "result": "1.167 and 1.060 and 1.135 and 1.121"},
      {"measurement": "PTEN.R.V normalized RPPA signal", "setting": "[2]", "result": "1.061 and 1.012 and 1.047"},
      {"measurement": "PTPN12.R.V normalized RPPA signal", "setting": "[2]", "result": "1.010 and 0.988 and 1.023"},
      {"measurement": "PYGB.R.V normalized RPPA signal", "setting": "[2]", "result": "1.017 and 1.164 and 0.766 and 0.982"},
      {"measurement": "PYGM.M.C normalized RPPA signal", "setting": "[2]", "result": "0.997 and 1.153 and 0.846 and 0.999"},
      {"measurement": "Puma.R.C normalized RPPA signal", "setting": "[2]", "result": "1.064 and 1.136 and 0.836 and 1.012"},
      {"measurement": "Pyk2_pY402.R.C normalized RPPA signal", "setting": "[2]", "result": "1.133 and 1.024 and 1.065"},
      {"measurement": "RBM15.R.V normalized RPPA signal", "setting": "[2]", "result": "0.984 and 1.128"},
      {"measurement": "RIP3.R.C normalized RPPA signal", "setting": "[2]", "result": "1.061 and 1.027 and 1.055 and 1.048"},
      {"measurement": "RIP.R.C normalized RPPA signal", "setting": "[2]", "result": "0.916 and 0.977 and 0.799 and 0.897"},
      {"measurement": "RPA32.R.V normalized RPPA signal", "setting": "[2]", "result": "1.150 and 0.846 and 1.011"},
      {"measurement": "RPA32_pS4_S8.R.C normalized RPPA signal", "setting": "[2]", "result": "1.171 and 1.234 and 0.878"},
      {"measurement": "RRM1.R.C normalized RPPA signal", "setting": "[2]", "result": "0.936 and 0.952 and 0.975"},
      {"measurement": "RRM2.R.C normalized RPPA signal", "setting": "[2]", "result": "0.907 and 1.001 and 0.922 and 0.943"}
    ]}
  ]
}
